Measured values as given in the supplement of paper PMC10307832.

Columns and labels:
Test in all cases: relative viability (nuclei count vs DMSO), 5 days (fraction); higher = more cells survive
[1] = compound: Cc1cnc(Nc2ccc(OCCN3CCCC3)cc2)nc1Nc1cccc(S(=O)(=O)NC(C)(C)C)c1 [Fedratinib] + Cc1nc(Nc2ncc(C(=O)Nc3c(C)cccc3Cl)s2)cc(N2CCN(CCO)CC2)n1 [Dasatinib] (partner 0.075 µM)
Summary of the method: (§1)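 Dosing by pin tool came one day after lung cancer cell lines were seeded in 1536-well plates, using either one drug or a fixed anchor-drug dose plus five library-drug doses (not always all listed) in √10 steps. After 5 days, nuclei were counted on 4× images. Relative viability is treated-well nuclei count divided by vehicle-well nuclei count, and values are medians of duplicate plates.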

[2] = compound: COC1=CC=C(C=C1)COC2=C(C=C(C=C2)CC3=CN=C(N=C3N)N)OC [GW-2580] + Cc1cc(Nc2cc(N3CCN(C)CC3)nc(Sc3ccc(NC(=O)C4CC4)cc3)n2)n[nH]1 [Tozasertib] (partner 0.1 µM)
Summary of the method: as §1

[3] = compound: COC1=CC=C(C=C1)COC2=C(C=C(C=C2)CC3=CN=C(N=C3N)N)OC [GW-2580] + N=C(N)NC(=N)NCCc1ccccc1 [Phenformin] (partner 250 µM)
Summary of the method: as §1

[4] = compound: COC1=CC=C(C=C1)COC2=C(C=C(C=C2)CC3=CN=C(N=C3N)N)OC [GW-2580] + Nc1ncn([C@H]2C[C@H](O)[C@@H](CO)O2)c(=O)n1 [Decitabine] (partner 2 µM)
Summary of the method: as §1

[5] = compound: COC1=CC=C(C=C1)COC2=C(C=C(C=C2)CC3=CN=C(N=C3N)N)OC [GW-2580] + CC(C)C[C@H](NC(=O)[C@H](Cc1ccccc1)NC(=O)c1cnccn1)B(O)O [Bortezomib] (partner 0.002 µM)
Summary of the method: as §1

Row | Cell Line | relative viability ([1]; first compound 0.1 µM) | relative viability ([1]; first compound 0.3162 µM) | relative viability ([1]; first compound 1 µM) | relative viability ([2]; first compound 0.08 µM) | relative viability ([2]; first compound 0.8 µM) | relative viability ([2]; first compound 2.53 µM) | relative viability ([2]; first compound 8 µM) | relative viability ([3]; first compound 0.08 µM) | relative viability ([3]; first compound 0.8 µM) | relative viability ([3]; first compound 2.53 µM) | relative viability ([3]; first compound 8 µM) | relative viability ([4]; first compound 0.08 µM) | relative viability ([4]; first compound 2.53 µM) | relative viability ([4]; first compound 8 µM) | relative viability ([5]; first compound 0.08 µM) | relative viability ([5]; first compound 0.8 µM) | relative viability ([5]; first compound 2.53 µM) | relative viability ([5]; first compound 8 µM) | relative viability ([4]; first compound 0.8 µM)
1 | NCI-H1623 | 0.339 | 0.45 | 0.408 | 0.631 | 0.416 | 0.594 | 0.486 | 0.566 | 0.587 | 0.463 | 0.566 |  |  |  |  |  |  |  | 
2 | NCI-H1648 |  |  |  | 0.427 |  |  | 0.429 |  |  |  |  | 0.531 | 0.464 | 0.552 |  |  |  |  | 
3 | NCI-H1703 |  |  |  |  |  |  |  |  |  |  |  |  |  |  | 0.307 | 0.351 | 0.532 | 0.335 | 
4 | NCI-H1792 | 0.619 | 0.765 | 0.81 |  |  |  |  | 0.4 | 0.226 | 0.146 | 0.313 | 0.574 | 0.387 | 0.502 | 0.926 | 1.07 | 0.734 | 1.1 | 0.546
5 | NCI-H1793 | 0.4 | 0.348 | 0.362 | 0.379 | 0.3 | 0.281 | 0.307 | 0.4 | 0.259 | 0.314 | 0.286 | 0.493 | 0.473 | 0.503 |  |  |  |  | 0.614
6 | NCI-H1944 | 0.21 | 0.235 | 0.196 | 0.267 | 0.256 | 0.253 | 0.205 | 0.198 | 0.201 | 0.169 | 0.189 | 0.414 | 0.45 | 0.395 |  |  |  |  | 0.421
7 | NCI-H2170 | 0.566 | 0.416 | 0.339 | 1.04 | 0.816 | 0.777 | 0.677 | 0.442 | 0.345 | 0.37 | 0.336 | 0.521 | 0.47 | 0.467 |  |  |  |  | 0.464
8 | NCI-H2228 | 0.552 | 0.448 | 0.349 | 0.28 | 0.351 | 0.226 | 0.235 | 0.395 | 0.371 | 0.358 | 0.318 |  |  |  | 1.03 | 1.1 | 0.958 | 0.986 | 
9 | NCI-H2342 | 0.314 | 0.309 | 0.273 | 0.557 | 0.498 | 0.516 | 0.418 | 0.57 | 0.725 | 0.509 | 0.567 | 0.673 | 0.692 | 0.735 |  |  |  |  | 0.654
10 | SK-MES-1 | 0.285 | 0.427 | 0.272 | 1.06 | 1.06 | 0.88 | 0.816 | 0.748 | 0.608 | 0.515 | 0.528 | 0.361 | 0.309 | 0.422 |  |  |  |  | 0.399
11 | SW 900 | 0.498 | 0.51 | 0.643 | 0.572 | 0.559 | 0.6 | 0.559 | 0.856 | 0.632 | 0.472 | 0.633 | 0.467 | 0.422 | 0.472 |  |  |  |  | 0.45
